Consider 42 compounds from patent US20250388593A1 (MITSUBISHI TANABE PHARMA CORPORATION, priority 2023, published 2025).

SMILES strings stand for the structures.

For this assay, the target named is CRBN truncate (318-426) (Homo sapiens (Human), UniProt Q96SW2). Briefly: Measurement of molecular interactions using surface plasmon resonance (SPR), Biacore T200. It counts as binding. As to conditions: 25° C., immobilized CRBN truncate, upper limit of measurement 200 μM. Summed up: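 C-terminally Avi-tagged CRBN (318-426) captured on a streptavidin SA chip on a Biacore T200. Running buffer 10 mM HEPES pH 7.5, 150 mM NaCl, 1 mM TCEP, 0.005% Tween 20, 2% DMSO; 60 s contact, 120 s dissociation.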
Sequence of CRBN truncate (318-426) (Q96SW2 318-426): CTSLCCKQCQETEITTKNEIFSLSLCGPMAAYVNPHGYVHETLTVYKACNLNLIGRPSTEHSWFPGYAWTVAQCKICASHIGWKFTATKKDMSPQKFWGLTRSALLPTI
(SPR reads the build-up and loss of mass on a sensor chip optically.)
What is called Kd is a measure of binding affinity in units of concentration. Low readings indicate higher affinity, high ones lower affinity. On to `COc1cccc2sc(N3CC4(CC(=O)N(C5CCC(=O)NC5=O)C4=O)C3)nc12` (stereo not drawn) [Example 240, 6-(2,6-Dioxopiperidin-3-yl)-2-(4-methoxy-1,3-benzothiazol-2-yl)-2,6-diazaspiro[3.4]octane-5,7-dione], for which the Kd was not below 100 µM.
As for `CC(C)(C)OC(=O)NCCCCCOc1ccc2nc(N3CC4(CC(=O)N(C5CCC(=O)NC5=O)C4=O)C3)sc2c1` (stereo not drawn) [Example 241, tert-Butyl N-[5-[[2-[6-(2,6-dioxopiperidin-3-yl)-5,7-dioxo-2,6-diazaspiro[3.4]octan-2-yl]-1,3-benzothiazol-6-yl]oxy]pentyl]carbamate], the Kd is not below 100 µM.
With `CC(C)(C)OC(=O)N1CCc2c(ncnc2N2CC3(CC(=O)N(C4CCC(=O)NC4=O)C3=O)C2)C1` (stereo not drawn) [Example 242, tert-Butyl 4-[6-(2,6-dioxo-3-piperidyl)-5,7-dioxo-2,6-diazaspiro[3.4]octan-2-yl]-6,8-dihydro-5H-pyrido[3,4-d]pyrimidine-7-carboxylate] the figure was not below 100 µM; with `CC(C)(C)OC(=O)c1ccc(C2(F)CCCC(=O)NC2=O)cc1` (stereo not drawn) [Example 243, tert-Butyl 4-(3-fluoro-2,7-dioxoazepan-3-yl) benzoate], not below 100 µM; with `CC(=O)Nc1cccc(C2(F)CCCC(=O)NC2=O)c1` (stereo not drawn) [Example 245, N-[3-(3-Fluoro-2,7-dioxoazepan-3-yl)phenyl]acetamide], not below 100 µM.
For the compound `O=C1CCCC(n2nc(-c3ccccc3)ccc2=O)C(=O)N1` (stereo not drawn) [Example 246, 3-(6-Oxo-3-phenylpyridazin-1-yl) azepane-2,7-dione], the Kd is 50 to 100 µM.
For the compound `O=C1CCCC(n2ncc(-c3ccccc3)cc2=O)C(=O)N1` (stereo not drawn) [Example 247, 3-(6-oxo-4-phenylpyridazin-1-yl)azepane-2,7-dione], the Kd was not below 100 µM.
The compound `O=C1CCCC(n2ncc(Cl)cc2=O)C(=O)N1` (stereo not drawn) [Example 248, 3-(4-Chloro-6-oxopyridazin-1-yl)azepane-2,7-dione] came in with a Kd not below 100 µM.
Consider `O=C1CCCC(n2nnc3ccccc32)C(=O)N1` (stereo not drawn) [Example 250, 3-(Benzotriazol-1-yl)azepine 2,7-dione], for which the Kd is not below 100 µM.
Turning to `COc1ccc2nn(C3CCCC(=O)NC3=O)nc2c1` (stereo not drawn) [Example 251, 3-(5-Methoxybenzotriazol-2-yl)azepane-2,7-dione], the Kd is not below 100 µM.
In turn, `O=C1CCCC(n2nc(Cl)ccc2=O)C(=O)N1` (stereo not drawn) [Example 252, 3-(3-Chloro-6-oxopyridazin-1-yl)azepane-2,7-dione] registered a Kd not below 100 µM.
`COc1ccc2c(c1)nnn2C1CCCC(=O)NC1=O` (stereo not drawn) [Example 253, 3-(5-Methoxybenzotriazol-1-yl)azepane-2,7-dione]: the Kd was not below 100 µM.
With `COc1ccc2nnn(C3CCCC(=O)NC3=O)c2c1` (stereo not drawn) [Example 254, 3-(6-Methoxybenzotriazol-1-yl)azepane-2,7-dione] the figure was not below 100 µM.
With `COc1cccc2c1nnn2C1CCCC(=O)NC1=O` (stereo not drawn) [Example 255, 3-(4-Methoxybenzotriazol-1-yl)azepane-2,7-dione] the figure was not below 100 µM; with `COc1cccc2nn(C3CCCC(=O)NC3=O)nc12` (stereo not drawn) [Example 256, 3-(4-Methoxybenzotriazol-2-yl)azepane-2,7-dione], not below 100 µM.
To `O=C1CCCC(n2c(=O)ccc3cc(Br)ccc32)C(=O)N1` (stereo not drawn) [Example 257, 3-(6-Bromo-2-oxoquinolin-1-yl)azepane-2,7-dione] belongs not below 100 µM.
On to `COc1cccc2c1ccc(=O)n2C1CCCC(=O)NC1=O` (stereo not drawn) [Example 258, 3-(5-Methoxy-2-oxoquinolin-1-yl)azepane-2,7-dione], for which the Kd was not below 100 µM.
In the case of `Cn1c(=O)c(=O)n(C2CCCC(=O)NC2=O)c2ccccc21` (stereo not drawn) [Example 259, 1-(2,7-Dioxoazepan-3-yl)-4-methylquinoxaline-2,3-dione], the Kd was not below 100 µM.
For the compound `CC(C)(C)OC(=O)CCc1ccc2c(c1)oc(=O)n2C1CCCC(=O)NC1=O` (stereo not drawn) [Example 260, tert-Butyl 3-[3-(2,7-dioxoazepan-3-yl)-2-oxo-1,3-benzoxazol-6-yl]propanoate], the Kd fell in the range of 50 to 100 µM.
As to `Cn1c(=O)n(C2CCCC(=O)NC2=O)c(=O)c2ccc(Br)cc21` (stereo not drawn) [Example 261, 7-Bromo-3-(2,7-dioxoazepan-3-yl)-1-methylquinazoline-2,4-dione], the Kd lay in the range of 50 to 100 µM.
With `CC(C)(C)OC(=O)CCc1ccc2c(c1)sc(=O)n2C1CCCC(=O)NC1=O` (stereo not drawn) [Example 262, tert-Butyl 3-[3-(2,7-dioxoazepan-3-yl)-2-oxo-1,3-benzothiazol-6-yl]propanoate], the Kd fell in the range of 50 to 100 µM.
The compound `Cn1c(=O)n(C2CCCC(=O)NC2=O)c(=O)c2ccc(CCC(=O)OC(C)(C)C)cc21` (stereo not drawn) [Example 265, tert-Butyl 3-[3-(2,7-dioxoazepan-3-yl)-1-methyl-2,4-dioxoquinazolin-7-yl]propanoate] had a Kd not below 100 µM.
To `Cn1c(-c2ccc(CCC(=O)OC(C)(C)C)cc2)nn(C2CCCC(=O)NC2=O)c1=O` (stereo not drawn) [Example 266, tert-Butyl 3-[4-[1-(2,7-dioxoazepan-3-yl)-4-methyl-5-oxo-1,2,4-triazol-3-yl]phenyl]propanoate] belongs not below 100 µM; to `O=C1CCCC(Oc2ccc(Br)cc2)C(=O)N1` (stereo not drawn) [Example 267, 3-(4-Bromophenoxy) azepane-2,7-dione], not below 100 µM; to `CC(C)(C)OC(=O)c1ccc(OC2CCCC(=O)NC2=O)nc1` (stereo not drawn) [Example 268, tert-Butyl 6-(2,7-dioxoazepan-3-yl) oxypyridine-3-carboxylate], not below 100 µM.
`O=C1CCCC2(CCN(C(=O)C3CCN(c4ncccn4)CC3)C2)C(=O)N1` (stereo not drawn) [Example 269, 2-(1-Pyrimidin-2-ylpiperidine-4-carbonyl)-2,7-diazaspiro [4.6]undecane-6,8-dione] came in with a dissociation constant (Kd) not below 100 µM.
`CN(C1CCCC(=O)NC1=O)S(=O)(=O)c1ccc(CCCCCCNC(=O)OC(C)(C)C)cc1` (stereo not drawn) [Example 271, tert-Butyl N-[6-[4-[(2,7-dioxoazepan-3-yl)-methylsulfamoyl]phenyl]hexyl]carbamate] returned a dissociation constant Kd not below 100 µM.
For the compound `CN1CCN(c2cnn(C3CCCC(=O)NC3=O)c(=O)c2)CC1` (stereo not drawn) [Example 272, 3-[4-(4-Methylpiperazin-1-yl)-6-oxopyridazin-1-yl]azepane-2,7-dione], the Kd was not below 100 µM.
With `CCOC(=O)c1ccc2nc(N3CC4(CC(=O)N(C5CCCC(=O)NC5=O)C4=O)C3)sc2c1` (stereo not drawn) [Example 273-2, Ethyl 2-[6-(2,7-dioxoazepan-3-yl)-5,7-dioxo-2,6-diazaspiro [3.4]octan-2-yl]-1,3-benzothiazole-6-carboxylate], the Kd was not below 100 µM.
The compound `O=C1CCCC(N2C(=O)OCc3cc([N+](=O)[O-])ccc32)C(=O)N1` (stereo not drawn) [Example 274, 3-(6-Nitro-2-oxo-4H-3,1-benzoxazin-1-yl) azepane-2,7-dione] yielded a Kd not below 100 µM.
As for `CC(C)(C)OC(=O)Cn1c(=O)c(=O)n(C2CCCC(=O)NC2=O)c2ccccc21` (stereo not drawn) [Example 275, tert-Butyl 2-[4-(2,7-dioxoazepan-3-yl)-2,3-dioxoquinoxalin-1-yl]acetate], the Kd was not below 100 µM.
To `CC(C)(C)OC(=O)N1CCC(c2ccc(OC3CCCC(=O)NC3=O)cc2)CC1` (stereo not drawn) [Example 276] belongs not below 100 µM; to `O=C1CCC(N2C(=O)CC3(CN(C4CCN(CC(=O)OCc5ccccc5)CC4)C3)C2=O)C(=O)N1` (stereo not drawn) [Example 277, Benzyl 2-[4-[6-(2,6-dioxopiperidin-3-yl)-5,7-dioxo-2,6-diazaspiro [3.4]octan-2-yl]piperidin-1-yl]acetate], less than 50 µM.
`CC(C)(C)OC(=O)NCCc1ccc(S(=O)(=O)N2CC3(CC(=O)N(C4CCC(=O)NC4=O)C3=O)C2)cc1` (stereo not drawn) [Example 278, tert-Butyl N-[2-[4-[[6-(2,6-dioxopiperidin-3-yl)-5,7-dioxo-2,6-diazaspiro [3.4]octan-2-yl]sulfonyl]phenyl]ethyl]carbamate] displayed a Kd not below 100 µM.
Take `Cn1nc(N2CC=CC(=O)NC2=O)c2ccc(Br)cc21` [Example 281, 3-(6-Bromo-1-methylindazol-3-yl)-4H-1,3-diazepine-2,7-dione]: the Kd was not below 100 µM.
For `CC1(N2CC=CC(=O)NC2=O)C(=O)N(CC(=O)OCc2ccccc2)c2ccccc21` (stereo not drawn) [Example 283, Benzyl 2-[3-(2,7-dioxo-4H-1,3-diazepin-3-yl)-3-methyl-2-oxoindol-1-yl]acetate], the Kd lay in the range of 50 to 100 µM.
In turn, `Cn1nc(N2C=CCC(=O)NC2=O)c2ccc(/C=C/C(=O)OC(C)(C)C)cc21` [Example 287, tert-Butyl (E)-3-[3-(2,4-dioxo-5H-1,3-diazepin-1-yl)-1-methylindazol-6-yl]prop-2-enoate] showed a Kd of less than 50 µM.
Turning to `CN1C(=O)C(C)(N2C=CCC(=O)NC2=O)c2ccc(/C=C/C(=O)OC(C)(C)C)cc21` (stereo not drawn) [Example 288, tert-Butyl (E)-3-[3-(2,4-dioxo-5H-1,3-diazepin-1-yl)-1,3-dimethyl-2-oxoindolin-6-yl]prop-2-enoate], the Kd is less than 50 µM.
`CN1C(=O)C(C)(N2C=CCC(=O)NC2=O)c2cccc(/C=C/C(=O)OC(C)(C)C)c21` (stereo not drawn) [Example 289, tert-Butyl (E)-3-[3-(2,4-dioxo-5H-1,3-diazepin-1-yl)-1,3-dimethyl-2-oxoindolin-7-yl]prop-2-enoate]: the Kd was less than 50 µM.
For the compound `Cn1nc(N2CCCC(=O)NC2=O)c2ccc(CCC(=O)OC(C)(C)C)cc21` [Example 291, tert-Butyl 3-[3-(2,4-dioxo-1,3-diazepan-1-yl)-1-methylindazol-6-yl]propanoate], the Kd lay within 50 to 100 µM.
With `CC1(N2CCCC(=O)NC2=O)C(=O)N(CC(=O)O)c2ccccc21` (stereo not drawn) [Example 292, 2-[3-(2,4-dioxo-1,3-diazepan-1-yl)-3-methyl-2-oxoindol-1-yl]acetic acid] the figure was not below 100 µM.
`Cc1ccc(NC(=O)Nc2ccc3nc(N4CCC5(CCCC(=O)NC5=O)C4)sc3c2)cc1Cl` (stereo not drawn) [Example 296, 1-(3-Chloro-4-methylphenyl)-3-[2-(6,8-dioxo-2,7-diazaspiro [4.6]undecan-2-yl)-1,3-benzothiazol-6-yl]urea] displayed a Kd not below 100 µM.
